Laboratory results: US20150197492A1, “NOVEL INDENO[1,2-c]QUINOLIN-11-ONE DERIVATIVES, PREPARATION METHOD AND APPLICATION THEREOF” (National Defense Medical Center, priority 2014, published 2015)

Assays:
Type in all cases: cell-based
[1] = tested on: 55 to 60 cancer cell lines; conditions: 10 μM, 48 hours, all tested cell lines
CCRF-CEM = assay: cells; conditions: CCRF-CEM (Leukemia), 10 μM, 48 hours
HL-60 (TB) = assay: cells; conditions: HL-60 (TB) (Leukemia), 10 μM, 48 hours
K-562 = assay: cells; conditions: K-562 (Leukemia), 10 μM, 48 hours
RPMI-8226 = assay: cells; conditions: RPMI-8226 (Leukemia), 10 μM, 48 hours
SR = assay: cells; conditions: SR (Leukemia), 10 μM, 48 hours
A549/ATCC = assay: cells; conditions: A549/ATCC (Non-Small Cell Lung Cancer), 10 μM, 48 hours
NCI-H226 = assay: cells; conditions: NCI-H226 (Non-Small Cell Lung Cancer), 10 μM, 48 hours
NCI-H23 = assay: cells; conditions: NCI-H23 (Non-Small Cell Lung Cancer), 10 μM, 48 hours
NCI-H322M = assay: cells; conditions: NCI-H322M (Non-Small Cell Lung Cancer), 10 μM, 48 hours
NCI-H522 = assay: cells; conditions: NCI-H522 (Non-Small Cell Lung Cancer), 10 μM, 48 hours
COLO 205 = assay: cells; conditions: COLO 205 (Colon Cancer), 10 μM, 48 hours
HCC-2998 = assay: cells; conditions: HCC-2998 (Colon Cancer), 10 μM, 48 hours
SW-620 = assay: cells; conditions: SW-620 (Colon Cancer), 10 μM, 48 hours
SF-268 = assay: cells; conditions: SF-268 (CNS Cancer), 10 μM, 48 hours
SF-295 = assay: cells; conditions: SF-295 (CNS Cancer), 10 μM, 48 hours
SF-539 = assay: cells; conditions: SF-539 (CNS Cancer), 10 μM, 48 hours
SNB-19 = assay: cells; conditions: SNB-19 (CNS Cancer), 10 μM, 48 hours
U251 = assay: cells; conditions: U251 (CNS Cancer), 10 μM, 48 hours
LOX IMVI = assay: cells; conditions: LOX IMVI (Melanoma), 10 μM, 48 hours
M14 = assay: cells; conditions: M14 (Melanoma), 10 μM, 48 hours
MDA-MB-435 = assay: cells; conditions: MDA-MB-435 (Melanoma), 10 μM, 48 hours
SK-MEL-5 = assay: cells; conditions: SK-MEL-5 (Melanoma), 10 μM, 48 hours
UACC-257 = assay: cells; conditions: UACC-257 (Melanoma), 10 μM, 48 hours
UACC-62 = assay: cells; conditions: UACC-62 (Melanoma), 10 μM, 48 hours
IGROV1 = assay: cells; conditions: IGROV1 (Ovarian Cancer), 10 μM, 48 hours
786-0 = assay: cells; conditions: 786-0 (Renal Cancer), 10 μM, 48 hours
A498 = assay: cells; conditions: A498 (Renal Cancer), 10 μM, 48 hours
ACHN = assay: cells; conditions: ACHN (Renal Cancer), 10 μM, 48 hours
CAKI-1 = assay: cells; conditions: CAKI-1 (Renal Cancer), 10 μM, 48 hours
TK-10 = assay: cells; conditions: TK-10 (Renal Cancer), 10 μM, 48 hours
PC-3 = assay: cells; conditions: PC-3 (Prostate Cancer), 10 μM, 48 hours
DU-145 = assay: cells; conditions: DU-145 (Prostate Cancer), 10 μM, 48 hours
BT-549 = assay: cells; conditions: BT-549 (Breast Cancer), 10 μM, 48 hours

Row | SMILES | Mean (mean growth percentage of the tested cancer cell lines) [1] [%] | growth percentage (CCRF-CEM) [%] | growth percentage (HL-60 (TB)) [%] | growth percentage (K-562) [%] | growth percentage (RPMI-8226) [%] | growth percentage (SR) [%] | growth percentage (A549/ATCC) [%] | growth percentage (NCI-H226) [%] | growth percentage (NCI-H23) [%] | growth percentage (NCI-H322M) [%] | growth percentage (NCI-H522) [%] | growth percentage (COLO 205) [%] | growth percentage (HCC-2998) [%] | growth percentage (SW-620) [%] | growth percentage (SF-268) [%] | growth percentage (SF-295) [%] | growth percentage (SF-539) [%] | growth percentage (SNB-19) [%] | growth percentage (U251) [%] | growth percentage (LOX IMVI) [%] | also measured
1 | CN1CCN(c2nc3ccccc3c3c2-c2ccc(Cl)cc2C3=O)CC1 [SJ-12, 9-Chloro-6-(4-methylpiperazin-1-yl)-11H-indeno[1,2-c]quinolin-11-one] | 88.15 | 92.44 | 101.15 | 92.13 | 85.92 | 75.13 | 96.43 | 86.17 | 86.27 | 87.41 | 96.62 | 93.65 | 103.21 | 92.76 | 92.35 | 90.01 | 95.23 | 85.41 | 85.86 | 87.17 | growth percentage (M14): 106.31%; growth percentage (MDA-MB-435): 98.43%; growth percentage (SK-MEL-5): 97.67%; growth percentage (UACC-257): 95.34%; growth percentage (UACC-62): 96.67%; growth percentage (IGROV1): 75.03%; growth percentage (786-0): 89.51%; growth percentage (A498): 72.81%; growth percentage (ACHN): 88.10%; growth percentage (CAKI-1): 83.81%; growth percentage (TK-10): 99.56%; growth percentage (PC-3): 82.93%; growth percentage (DU-145): 102.37%; growth percentage (BT-549): 82.89%
2 | O=C1c2cc(Cl)ccc2-c2c(N3CCN(C(=O)N4CCCCC4)CC3)nc3ccccc3c21 [SJ-23] | 100.53 | 109.87 | 109.78 | 95.70 | 104.31 | 105.15 | 99.12 | 96.06 | 95.41 | 94.59 | 99.28 | 98.52 | 106.23 | 92.51 | 107.51 | 97.83 | 92.98 | 108.66 | 98.15 | 103.19 | growth percentage (M14): 101.18%; growth percentage (MDA-MB-435): 102.57%; growth percentage (SK-MEL-5): 92.50%; growth percentage (UACC-257): 104.23%; growth percentage (UACC-62): 93.92%; growth percentage (IGROV1): 81.63%; growth percentage (786-0): 105.05%; growth percentage (A498): 104.44%; growth percentage (ACHN): 95.59%; growth percentage (CAKI-1): 90.50%; growth percentage (TK-10): 131.97%; growth percentage (PC-3): 93.07%; growth percentage (DU-145): 114.04%; growth percentage (BT-549): 105.34%
